Results taken from US20030129224A1, “Lipid carrier compositions and methods for improved drug retention” (priority 2001, published 2003).

Assays:
[1] = Daunorubicin retention in liposomes in blood after intravenous injection (time course); format: in vivo, Balb/c mice; conditions: low-cholesterol liposomes DSPC/DSPE-PEG2000 (95:5); citrate 600 mOsm/kg (300 mM) in relation to 300 mOsm/kg (150 mM); i.v.; 1, 4, 24 h
Description: DSPC/DSPE-PEG2000 liposomes (95:5 mole ratio) containing 150 or 300 mM citrate (300 or 600 mOsm/kg), pH 4 and DSPC/Cholesterol (55:45 mole ratio) and DSPC/Cholesterol/DSPE-PEG2000 (50:45:5 mole ratio) liposomes containing 150 mM citrate, pH 4 were prepared as described in Example 1. Liposomes were subsequently combined with daunorubicin at a 0.2:1 drug to lipid mole ratio. To facilitate drug loading, the mixtures were incubated at 40° C. for 60 minutes.
The resulting daunorubicin-containing liposomes were administered to Balb/c female mice at a lipid dose of 165 μmoles/kg as detailed above. Blood samples were removed at 1, 4 and 24 hours post administration by cardiac puncture (3 mice per time point). Lipid levels were determined by liquid scintillation counting. Daunorubicin was extracted from plasma samples and quantified as follows: a defined volume of plasma was adjusted to 200 μL with distilled water followed by addition of 600 μL of distilled water, 100 μL of 10% SDS and 100 μL of 10 mM H2SO4. This solution was mixed and 2 mLs of 1:1 isopropanol/chloroform was added followed by vortexing. […] The bottom organic layer was removed and assayed for fluorescence intensity at 500 nm as the excitation wavelength (2.5 nm bandpass) and 550 nm as an emission wavelength (10 nm bandpass) and using an absorbance wavelength of 480 nm.

[2] = Daunorubicin retention 4 hours after intravenous injection, varying internal citrate; format: in vivo, Balb/c mice; conditions: DSPC/DSPE-PEG2000 (95:5); 100, 150 and 200 mM internal citrate (about 200, 300, 400 mOsm/kg), versus 250 and 300 mM; 4 hours after i.v.
Description: Daunorubicin was loaded at a 0.2:1 drug-to-lipid mole ratio with the methods detailed above into each of the five liposomal formulations. The resulting liposomes were administered to female Balb/c mice at a lipid dose of 165 μmoles/kg in a final volume of 200 μL immediately after preparation (within 1-2 hrs). Blood samples were removed 4 hours after administration by cardiac puncture (3 mice per time point). Lipid and daunorubicin levels were determined as described previously and percent initial drug-to-lipid ratio was reported as the mean±SD.

[3] = Idarubicin retention in liposomes in blood after intravenous injection; format: in vivo, Balb/c mice; conditions: cholesterol-free DSPC/DSPE-PEG2000 (95:5); 300 mM citrate (>500 mOsm/kg) in relation to 100 and 150 mM (<500 mOsm/kg); i.v.; 0.5-24 h
Description: DSPC/DSPE-PEG2000 (95:5 mole ratio) liposomes containing the non-exchangeable marker ^3H-CHE were prepared as described in Example 1, except that lipid films were hydrated with 100, 150, 200, 250 or 300 mM citrate, pH 4.0 (corresponding to osmolarity levels of about 200, 300, 400, 500 or 600 mOsm/kg, respectively).
DSPC/DSPE-PEG2000 (95:5 mole ratio) liposomes prepared with 100, 150 and 300 mM citrate were also loaded with idarubicin at a drug to lipid mole ratio of 0.25:1. Loading was facilitated by incubating the drug and liposomes at 37° C. for 60 minutes. Liposomes were administered to Balb/c mice as indicated and blood samples were removed by cardiac puncture at 0.5, 1, 2, 4 and 24-hours post administration (3 mice per time point). Idarubicin concentration was quantitated using fluorescence intensity at 485 nm as the excitation wavelength and 535 nm as an emission wavelength and using an absorbance wavelength of 482 nm.

[4] = Freeze/thaw stability of DSPC/DSPG liposomes (drug-to-lipid ratio and size) at -20 or -70 C for 24 hours; format: physicochemical; conditions: 0-20 mole % cholesterol, 250 mM CuSO4 internal, frozen at -20 C and -70 C for 24 hours
Description: FUDR and irinotecan were loaded into cholesterol-free liposomes containing a low osmolarity internal solution and drug retention and liposome size were measured prior to and after freezing. DSPC/DSPG liposomes containing 0-20 mole % cholesterol, 20 mole % DSPG and passively entrapped FUDR were prepared as described previously and hydrated in 250 mM CuSO4 (<500 mOsm/kg). The MLVs were extruded at 70° C. as detailed above and buffered exchanged into saline and then into 300 mM sucrose, 20 mM Hepes, 30 mM EDTA (SHE), pH 7.4 using a hand-held tangential flow column. The sample was then further exchanged into 300 mM sucrose, 20 mM Hepes, pH 7.4 to remove residual EDTA. The liposomes were subsequently loaded with irinotecan at a drug-to-lipid mole ratio of 0.1:1 by mixing the two solutions at 50° C. for five minutes. The dual-loaded liposomes were then buffered exchanged into HBS using tangential flow to remove any unencapsulated drug.
The influence of freezing on liposome stability was determined by freezing the liposomes at either −20° C. or −70° C. for 24 hours. […] Lipid and FUDR levels were quantified using liquid scintillation and absorbance at 370 nm was used to determine irinotecan concentration. Particle sizing of the liposomes was also determined prior to and after freezing using quasi-elastic light scattering.

[5] = Vincristine retention in liposomes in blood after intravenous injection of Balb/c mice; format: in vivo; conditions: i.v., 1, 4, 24 h
Description: Solutions of lipids in chloroform were combined to give a 95:5 molar ratio of DSPC/DSPE-PEG2000 or a 55:45 molar ratio of DSPC/Cholesterol, with trace amounts of ^14C-cholesteryl hexadecyl ether (^14C-CHE). The resulting mixtures were dried under a stream of nitrogen gas and placed in a vacuum pump overnight. The samples were hydrated at 70° C. with either 300 mM citrate, pH 4.0 (about 600 milliosmoles/kg (mOsm/kg)) or 150 mM citrate buffer, pH 4.0 (about 300 mOsm/kg) and passed through an extrusion apparatus (Northern Lipids Inc., Vancouver, BC) ten times with two 100 nm pore size polycarbonate filters at 70° C. Average liposome size was determined by quasi-elastic light scattering using a NICOMP 370 submicron particle sizer operating at a wavelength of 632.8 nm. The resulting liposomes were applied to a Sephadex G50 column equilibrated with HBS (20 mM HEPES, 150 mM NaCl, about 320 mOsm/kg), pH 7.45 to exchange the external liposomal buffer. […]
Vincristine-containing liposomes were administered intravenously to Balb/c mice at a lipid dose of 165 μmoles/kg in a final volume of 200 μL immediately after preparation (within 1-2 hrs). […] Lipid and vincristine levels were quantified by liquid scintillation counting and the values were reported as the mean±standard deviation (SD).

COc1cccc2c1C(=O)c1c(O)c3c(c(O)c1C2=O)C[C@@](O)(C(C)=O)C[C@@H]3O[C@H]1C[C@H](N)[C@H](O)[C@H](C)O1 [daunorubicin]
daunorubicin retention (percent initial daunorubicin-to-lipid ratio remaining in the blood) [1]: compromised | retention of daunorubicin (percent initial drug-to-lipid ratio in the blood) [2]: optimal retention

CC(=O)[C@]1(O)Cc2c(O)c3c(c(O)c2[C@@H](O[C@H]2C[C@H](N)[C@H](O)[C@H](C)O2)C1)C(=O)c1ccccc1C3=O [idarubicin]
idarubicin retention (idarubicin-to-lipid mole ratio in the blood) [3]: significantly decreased

CCc1c2c(nc3ccc(OC(=O)N4CCC(N5CCCCC5)CC4)cc13)-c1cc3c(c(=O)n1C2)COC(=O)[C@]3(O)CC [irinotecan]
retention of irinotecan after freezing (drug-to-lipid ratio) [4]: effectively retained

CC[C@]1(O)C[C@H]2CN(CCc3c([nH]c4ccccc34)[C@@](C(=O)OC)(c3cc4c(cc3OC)N(C=O)[C@H]3[C@@](O)(C(=O)OC)[C@H](OC(C)=O)[C@]5(CC)C=CCN6CC[C@]43[C@@H]65)C2)C1 [vincristine]
retention of vincristine (percent initial vincristine-to-lipid weight ratio in the blood) ([5]; cholesterol containing liposomes DSPC/cholesterol (55:45), 150 vs 300 mM citrate): independent of the osmolarity of the intraliposomal solution | retention of vincristine (percent initial vincristine-to-lipid weight ratio in the blood) ([5]; low-cholesterol liposomes DSPC/DSPE-PEG2000 (95:5), internal citrate 300 mOsm/kg (150 mM) compared to 600 mOsm/kg (300 mM)): significantly enhanced
